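Exposure lasted 48 hours, with cells grown in 96-well plates and compounds tested at five concentrations. GI50: concentration for 50% inhibition of growth.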 Active and inactive are the calls of the source. Cut-off read from the data, not from the text of the source: active = GI50 up to about 1.1 µM and inactive = higher.
Key:
Assay in all cases: growth of human tumour cells (NCI), 48 h
SR = tested on: SR
OVCAR-5 = tested on: OVCAR-5
PC-3 = tested on: PC-3
HOP-62 = tested on: HOP-62
UACC-257 = tested on: UACC-257
CCRF-CEM = tested on: CCRF-CEM
CAKI-1 = tested on: CAKI-1
SNB-75 = tested on: SNB-75
EKVX = tested on: EKVX
KM12 = tested on: KM12
OVCAR-4 = tested on: OVCAR-4
A498 = tested on: A498
UACC-62 = tested on: UACC-62
A549 = tested on: A549
SK-MEL-2 = tested on: SK-MEL-2
HCC 2998 = tested on: HCC 2998
COLO 205 = tested on: COLO 205
MCF7 = tested on: MCF7
HL-60 = tested on: HL-60
TK-10 = tested on: TK-10

Structure (SMILES)	GI50 (SR)	GI50 (OVCAR-5)	GI50 (PC-3)	GI50 (HOP-62)	GI50 (UACC-257)	GI50 (CCRF-CEM)	GI50 (CAKI-1)	GI50 (SNB-75)	GI50 (EKVX)	GI50 (KM12)	GI50 (OVCAR-4)	GI50 (A498)	GI50 (UACC-62)	GI50 (A549)	GI50 (SK-MEL-2)	GI50 (HCC 2998)	GI50 (COLO 205)	GI50 (MCF7)	GI50 (HL-60)	GI50 (TK-10)
C=CCC1(O)CC(n2cc(C)c(=O)[nH]c2=O)OC1CO[Si](C)(C)C(C)(C)C (stereo unspecified)	45 µM (inactive)	61.9 µM (inactive)	36.5 µM (inactive)	> 100 µM (inactive)	52.4 µM (inactive)	43.8 µM (inactive)	54.6 µM (inactive)	38 µM (inactive)	36.7 µM (inactive)	45.3 µM (inactive)	47 µM (inactive)	37.2 µM (inactive)	35.9 µM (inactive)	35.5 µM (inactive)	22.3 µM (inactive)	24.5 µM (inactive)	21.6 µM (inactive)	47.8 µM (inactive)		
CC(ON(C(c1ccccc1)C(C)C)C(C)(C)C)c1ccccc1 (stereo unspecified)	23 µM (inactive)	16 µM (inactive)	33.8 µM (inactive)	19.4 µM (inactive)	17.2 µM (inactive)	19.1 µM (inactive)	21.7 µM (inactive)	25.1 µM (inactive)	15.4 µM (inactive)	18.4 µM (inactive)	27 µM (inactive)		15.9 µM (inactive)	29.6 µM (inactive)	18.4 µM (inactive)	17.3 µM (inactive)	17.3 µM (inactive)	16.4 µM (inactive)	18.7 µM (inactive)	22.4 µM (inactive)
O=C1Nc2ccc(S(=O)(=O)NCCO)cc2/C1=C1/Nc2ccccc2C1=O	1.01 µM (active)	46.5 µM (inactive)	12.2 µM (inactive)	16.2 µM (inactive)	> 100 µM (inactive)	3.23 µM (inactive)	> 100 µM (inactive)	1.97 µM (inactive)	7.69 µM (inactive)	0.385 µM (active)	3.06 µM (inactive)	2.53 µM (inactive)	7.18 µM (inactive)	> 100 µM (inactive)	4.16 µM (inactive)	53 µM (inactive)	2.82 µM (inactive)	0.475 µM (active)		18 µM (inactive)
O=C(CCc1cc(O)cc(O)c1)NCCc1cc(O)cc(O)c1	> 100 µM (inactive)	> 100 µM (inactive)	> 100 µM (inactive)	> 100 µM (inactive)	> 100 µM (inactive)	> 10 µM (inactive)	> 100 µM (inactive)	> 100 µM (inactive)	> 100 µM (inactive)	> 100 µM (inactive)		> 100 µM (inactive)	> 100 µM (inactive)	> 100 µM (inactive)	> 100 µM (inactive)	> 100 µM (inactive)	> 100 µM (inactive)	> 100 µM (inactive)		> 100 µM (inactive)
C/C(=N\NC(=O)c1ccccc1O)c1cccc(/C(C)=N/NC(=O)c2ccccc2O)n1	1.89 µM (inactive)		7.1 µM (inactive)	5.05 µM (inactive)				12.1 µM (inactive)	13.8 µM (inactive)	6.5 µM (inactive)		37.8 µM (inactive)	2.58 µM (inactive)	9.23 µM (inactive)	10.2 µM (inactive)	1.02 µM (active)		26.2 µM (inactive)		18.6 µM (inactive)
CN(C)CC(CN(C)C)c1ccccn1	> 100 µM (inactive)	> 100 µM (inactive)	> 100 µM (inactive)	> 100 µM (inactive)	> 100 µM (inactive)	> 100 µM (inactive)	> 100 µM (inactive)		> 100 µM (inactive)	> 100 µM (inactive)	> 100 µM (inactive)	> 100 µM (inactive)	> 100 µM (inactive)	> 100 µM (inactive)	> 100 µM (inactive)		> 100 µM (inactive)	> 100 µM (inactive)	> 100 µM (inactive)	> 100 µM (inactive)
Cc1n[nH]c(=S)n1/N=C/c1ccc(-c2ccc(Cl)cc2)o1	> 100 µM (inactive)	> 100 µM (inactive)	> 100 µM (inactive)	49.7 µM (inactive)	> 100 µM (inactive)		> 100 µM (inactive)	31.9 µM (inactive)	61.9 µM (inactive)	> 100 µM (inactive)	> 100 µM (inactive)	> 100 µM (inactive)		> 100 µM (inactive)	29.8 µM (inactive)			> 100 µM (inactive)	44.2 µM (inactive)	83.4 µM (inactive)
CCCCC(=C=C(C)CO)C1CCCN1C(=O)OC(C)(C)C (stereo unspecified)	15.1 µM (inactive)	21 µM (inactive)	18.5 µM (inactive)	20 µM (inactive)	16 µM (inactive)	14.3 µM (inactive)	21.8 µM (inactive)	22.5 µM (inactive)	19.7 µM (inactive)	18.4 µM (inactive)	17.3 µM (inactive)		13.6 µM (inactive)	19 µM (inactive)	16.5 µM (inactive)	8.02 µM (inactive)	15.4 µM (inactive)	20.4 µM (inactive)	13.4 µM (inactive)	19.4 µM (inactive)
Cc1c(-c2ccccc2)[nH]c2ccc(Cl)cc2c1=O	12.2 µM (inactive)	61.9 µM (inactive)	47.6 µM (inactive)	19.1 µM (inactive)	27.8 µM (inactive)	55.8 µM (inactive)	< 0.01 µM (active)	26 µM (inactive)	47.4 µM (inactive)	0.263 µM (active)	21.8 µM (inactive)		34.8 µM (inactive)	0.0232 µM (active)	18 µM (inactive)	23.2 µM (inactive)	70.6 µM (inactive)	25.2 µM (inactive)	24.2 µM (inactive)	36.6 µM (inactive)
O=C1CSC(c2cccc(Oc3ccccc3)c2)N1c1ccc(Cl)cc1 (stereo unspecified)	14 µM (inactive)	65.5 µM (inactive)	23 µM (inactive)	57 µM (inactive)	17.4 µM (inactive)	51.4 µM (inactive)	17.9 µM (inactive)	28 µM (inactive)	20.7 µM (inactive)	21.3 µM (inactive)	26.2 µM (inactive)	17.5 µM (inactive)	10.8 µM (inactive)	31.9 µM (inactive)	18.5 µM (inactive)		18.5 µM (inactive)	15.3 µM (inactive)	24.9 µM (inactive)	22.4 µM (inactive)
CCN(CC)c1nc(N(C)C)c2ccc(OC)cc2n1	12.7 µM (inactive)	16.7 µM (inactive)	17.3 µM (inactive)	19.7 µM (inactive)	11.5 µM (inactive)		22.9 µM (inactive)	15.6 µM (inactive)	3.95 µM (inactive)	14.7 µM (inactive)	25.8 µM (inactive)		6.65 µM (inactive)	19.7 µM (inactive)	15.9 µM (inactive)	11.6 µM (inactive)	7.55 µM (inactive)	10.9 µM (inactive)	3.64 µM (inactive)	24.5 µM (inactive)
